biological target: MAGE-A11:PCF11 (Homo sapiens (Human), UniProt P43364); test: TR-FRET single point screening at 15 μM; type: binding; set-up: unit not given here; conditions: single point TR-FRET screening at 15 μM against MAGE-A11:PCF11
Procedure, shortened: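 Competition TR-FRET: compounds at final 15 μM mixed with 200 nM FAM-PCF11_4, 5 nM GST-MAGEA11 and 5 nM Tb-anti-GST in Tris pH 7.5/MgCl2/BSA/DTT buffer, room temperature, 90 min. Emission ratio 520/490 nm (340 nm excitation) expressed as % inhibition relative to positive and negative controls.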

Sequence of MAGE-A11:PCF11 (P43364 218-429): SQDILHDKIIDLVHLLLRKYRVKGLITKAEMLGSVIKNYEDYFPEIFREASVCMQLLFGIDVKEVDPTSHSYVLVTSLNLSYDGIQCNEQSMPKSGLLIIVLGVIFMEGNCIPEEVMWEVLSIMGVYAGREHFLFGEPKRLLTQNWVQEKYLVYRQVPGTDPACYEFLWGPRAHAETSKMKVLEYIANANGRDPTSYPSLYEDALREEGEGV

Point of comparison: CCN1CCN(c2c(S(=O)(=O)c3ccccc3)cnc3ccc(Cl)cc23)CC1 [SJ000083960], TR-FRET signal 4.43. Against it:
- Clc1ccc2c(NC3CCN(Cc4cccc5ccccc45)CC3)ccnc2c1 [SJ000523099] — lower, −6.179
- Clc1ccc2c(NCCCCN(Cc3ccccc3)Cc3ccoc3)ccnc2c1 [SJ000312685] — higher, 14.9
- CCCN(CCCNc1c2ccc(Cl)cc2nc2ccc(OC)cc12)Cc1ccc(CC)cc1 [SJ000522972] — lower, −105.1
- COc1ccc2ncc(S(=O)(=O)c3ccc(Cl)cc3)c(N3CCN(C)CC3)c2c1 [SJ000083952] — lower, −3.658
- COc1ccc2nc3cc(Cl)ccc3c(NCCCNCc3nccs3)c2c1 [SJ000520989] — lower, −355.2
- FC(F)(F)Oc1cccc(CN(CCCCNc2ccnc3cc(Cl)ccc23)Cc2ccccc2)c1 [SJ000520457] — higher, 33.31
- COc1ccc2nc3cc(Cl)ccc3c(NCCCNCc3c(F)cccc3OC)c2c1 [SJ000520915] — lower, −298.8
- Clc1ccc2c(NCCCCN(Cc3ccccc3)Cc3cccnc3Br)ccnc2c1 [SJ000520453] — lower, 2.377
- CCCN(CCCCNc1ccnc2cc(Cl)ccc12)Cc1ccoc1 [SJ000311200] — higher, 12.31
- O=[N+]([O-])c1cccc(CN2CCC(Nc3ccnc4cc(Cl)ccc34)CC2)c1 [SJ000523095] — lower, 0.8927
- Clc1ccc2c(NCCCCN(Cc3ccccc3)CC3CCCCC3)ccnc2c1 [SJ000361194] — higher, 41.93
- CCCN(CCCNc1c2ccc(Cl)cc2nc2ccc(OC)cc12)CCC(C)c1ccccc1 (stereo not drawn) [SJ000522731] — lower, −121
- CCOC(=O)c1cnc2c(C(=O)OC)cccc2c1NCCN1CCOCC1 [SJ000184799] — lower, 4.043
- CCc1ccc(CN(CCCCNc2ccnc3cc(Cl)ccc23)Cc2ccccc2)cc1 [SJ000520443] — higher, 29.91
- COc1ccc2nc3cc(Cl)ccc3c(NCCCNCc3cccc(C(F)(F)F)c3)c2c1 [SJ000520990] — lower, −408.1
- COc1ccc2nc3cc(Cl)ccc3c(NCCCNCc3ccccc3)c2c1 [SJ000361086] — lower, −432.4
- CCCN(CCCNc1c2ccc(Cl)cc2nc2ccc(OC)cc12)Cc1cccc(C#N)c1 [SJ000522739] — lower, −94.54
- O=C(C[C@H]1CC[C@]2(CC1)OO[C@]1(O2)C2CC3CC(C2)CC1C3)NCCCCNc1ccnc2cc(Cl)ccc12 [SJ000578384] — higher, 25.12
- CCCN(CCCNc1c2ccc(Cl)cc2nc2ccc(OC)cc12)Cc1ccc(F)cc1 [SJ000520946] — lower, −141.7
- COc1ccc(C(F)(F)F)cc1CN(CCCCNc1ccnc2cc(Cl)ccc12)Cc1ccccc1 [SJ000520444] — higher, 31.82
- CCOC(=O)c1cnc2c(Cl)cc(Cl)cc2c1NCCN1CCOCC1 [SJ000175864] — lower, −13.06
- CCc1ccc2ncc(S(=O)(=O)c3ccc(OC)cc3)c(N3CCN(c4ccccc4)CC3)c2c1 [SJ000117056] — lower, −2.791
- CCOC(=O)c1cnc2c(C)cc(Cl)cc2c1NCCN(C)C [SJ000027210] — lower, 3.834
- CCCN(CCCNc1c2ccc(Cl)cc2nc2ccc(OC)cc12)Cc1ccc(C)s1 [SJ000520927] — lower, −124.8
- Cc1ccc(CN(CCCCNc2ccnc3cc(Cl)ccc23)Cc2ccccc2)o1 [SJ000312682] — lower, 2.013
- Clc1ccc2c(NCCCCN(Cc3ccccc3)Cc3ccco3)ccnc2c1 [SJ000312681] — higher, 12.05
- Clc1ccc2c(NCCCCN(Cc3ccccc3)Cc3ccc(Br)o3)ccnc2c1 [SJ000312684] — higher, 14.96
- C#CCOCC(O)CN1CCN(c2cc(C)nc3ccccc23)CC1 (stereo not drawn) [SJ000227655] — higher, 6.55

same assay, conditions: single point TR-FRET screening of quinoline compounds against MAGE-A11:PCF11; 15 μM

Point of comparison: CCOC(=O)c1ccc2ncc(C(=O)OCC)c(NCCCN3CCOCC3)c2c1 [SJ000176583], TR-FRET signal 11.26. Against it:
- CCCN(CCCNc1ccnc2cc(C(F)(F)F)ccc12)CCCc1ccccc1 [SJ000523080] — higher, 28
- CCCN(CCCNc1ccnc2cc(C(F)(F)F)ccc12)Cc1cccc2ccccc12 [SJ000523074] — higher, 14.32
- CCCN(CCCNc1ccnc2cc(C(F)(F)F)ccc12)Cc1c[nH]c2ccccc12 [SJ000520468] — higher, 16.16
- CCCN(CCCNc1ccnc2cc(C(F)(F)F)ccc12)Cc1c(F)cccc1C(F)(F)F [SJ000520481] — higher, 11.47
- COc1ccc(Oc2ccc3c(NCCCNCc4ccco4)ccnc3c2)cc1 [SJ000311218] — higher, 36.25
- Cc1ccc(CN(CCCNc2ccnc3cc(Cl)ccc23)Cc2ccccc2)o1 [SJ000312669] — lower, 2.84
- CCCN(CCCNc1ccnc2cc(Cl)ccc12)Cc1cccn1C [SJ000523014] — higher, 22.71
- CCCN(CCCNc1ccnc2cc(C(F)(F)F)ccc12)Cc1ccc(Cl)cc1Cl [SJ000523078] — lower, 3.83
- Clc1ccc2c(NCCCN(Cc3ccccc3)CC3CC=CCC3)ccnc2c1 (stereo not drawn) [SJ000311182] — higher, 16.09
- CC(C)CCN(CCCNc1ccnc2cc(Cl)ccc12)Cc1ccccc1 [SJ000311183] — lower, 2.673
- CCCN(CCCNc1ccnc2cc(C(F)(F)F)ccc12)Cc1nc(C)cs1 [SJ000521010] — lower, 0.8927
- Cc1csc(CN(CCCNc2ccnc3cc(Cl)ccc23)Cc2ccccc2)n1 [SJ000520463] — lower, −10.47
- CCCN(CCCNc1c2ccc(Cl)cc2nc2ccc(OC)cc12)Cc1ccc(Cl)cc1Cl [SJ000520956] — lower, 9.598
- CCCN(CCCNc1c2ccc(Cl)cc2nc2ccc(OC)cc12)Cc1cccnc1Br [SJ000522977] — lower, 0.2567
- CCOC(=O)c1cnc2ccc(C(=O)OC)cc2c1NCCCN1CCOCC1 [SJ000279665] — lower, 10.71
- CCCN(CCCNc1c2ccc(Cl)cc2nc2ccc(OC)cc12)Cc1c(F)cccc1C(F)(F)F [SJ000522968] — higher, 23.09
- CCCN(CCCNc1ccnc2cc(Cl)ccc12)Cc1nccn1C [SJ000523002] — lower, 6.351
- CCCN(CCCNc1ccnc2cc(Cl)ccc12)Cc1ccc(CC)cc1 [SJ000523001] — higher, 30.13
- CCOC(=O)c1cnc2ccc(OC)cc2c1NCCCN1CCOCC1 [SJ000127046] — lower, 2.945
- CCCN(CCCNc1ccnc2cc(C(F)(F)F)ccc12)Cc1ncc[nH]1 [SJ000575181] — lower, 9.345
- Clc1ccc2c(NCCCN(CCOCc3ccccc3)Cc3ccccc3)ccnc2c1 [SJ000357583] — higher, 13.24
- CCCN(CCCNc1ccnc2cc(C(F)(F)F)ccc12)Cc1ccc(Cl)c(C(F)(F)F)c1 [SJ000521015] — lower, 11.04
- CCCN(CCCNc1ccnc2cc(Cl)ccc12)Cc1ccccn1 [SJ000522743] — lower, 1.313
- CCC(CC)CNCCCNc1ccnc2cc(Cl)ccc12 [SJ000361103] — higher, 16.55
- CCCN(CCCNc1ccnc2cc(C(F)(F)F)ccc12)Cc1ccncc1 [SJ000361251] — higher, 17.49
- c1ccc(Oc2ccc3c(NCCCNCc4ccco4)ccnc3c2)cc1 [SJ000311206] — higher, 14.59
- CSCCCNCCCNc1ccnc2cc(Cl)ccc12 [SJ000523051] — higher, 14.97
- CCOC(=O)c1cnc2c(C(F)(F)F)cccc2c1NCCCN1CCOCC1 [SJ000131358] — lower, 10.06
- O=[N+]([O-])c1ccccc1-c1ccc(CNCCCNc2ccnc3cc(Cl)ccc23)o1 [SJ000523068] — higher, 21.65
- CCCCN(CCCNc1ccnc2cc(Cl)ccc12)Cc1ccccc1 [SJ000357579] — higher, 19.31

Source: US20240246941A1, “SUBSTITUTED 4-(3-AMINOPROP-1-YL)AMINOQUINOLINE ANALOGS AS MODULATORS OF MELANOMA-ASSOCIATED ANTIGEN 11 UBIQUITIN LIGASE” (ST. JUDE CHILDREN'S RESEARCH HOSPITAL, INC., priority 2020, published 2024)
